The values below come from US20240423208A1, “AGRICULTURAL COMPOSITION AND METHOD FOR CULTIVATING PLANTS USING SAME” (KANEKA CORPORATION, priority 2022, published 2024).

Assay [1] has as its system Lettuce (the cultivar: Souther). Briefly: Experiment 1: lettuce growth, total dry weight after bottom watering. The following applies: compositions with 15 mass % GSSG, 10 mass % ALN, 5 mass % ferrous material, 15 mass % seaweed extract; diluted 1000-fold, bottom watering 3 and 4 weeks after seeding. It is filed as in vivo. The procedure:
Lettuce (the cultivar: Souther) was raised in a plant incubator. Three weeks after the seeding and four weeks after the seeding, a composition comprising 15 mass % oxidized glutathione (GSSG), 10 mass % allantoin (ALN), 5 mass % ferrous material, or 15 mass % seaweed extract, or a composition comprising a combination of 15 mass % GSSG and any of 10 mass % ALN, 5 mass % ferrous material, or 15 mass % seaweed extract was applied to the lettuce. Each composition was diluted 1000-fold, and each resulting solution was applied by bottom watering.
Four weeks after the seeding, the seedling was transplanted into a pot, grown in a glass greenhouse for two weeks, and then, evaluated (repeated 9 times).
Assuming that the value of the total dry weight of the lettuce to which water alone was applied was 100, the total dry weight of the lettuce to which each composition was applied was expressed.

For a further assay, the system named is grape VR cell. Briefly: Experiment 9: cumulative amount of anthocyanin in cultured grape VR cell. It is filed as cell-based. The following applies: GSSG 0.1%, ALN 0.4%; 10 μL at start and 100 μL on 3rd day; measured on 11th day of culture. The procedure: A grape VR cell was cultured in an LS agar culture medium, and the cumulative amount of anthocyanin was measured. The solution for each treatment section as shown in Table 4 was delivered into the cell cluster by drops in an amount of 10 μL at the beginning of the culture, and in an amount of 100 μL on the 3rd day of culture. The amount of anthocyanin was measured on the 11th day of culture. The culture was performed at 27° C. under light irradiation.

Assay [2] deals with lettuce (the cultivar: Lollo Rosso or Red Oak). Briefly: Experiment 10: visual evaluation of lettuce coloration after leaf spraying. The following applies: GSSG 0.125%, ALN 0.5%; sprayed on leaves approximately 1 g/head; one week after spraying; compared with T1. Details: key: The same degree of coloration as T1 was rated CC; slightly more coloration than T1 was rated BB; much more coloration than T1 was rated AA. It is filed as in vivo. The procedure:
Culture soil was put in a 9 cm plastic pot, and seeded with lettuce (the cultivar: Lollo Rosso or Red Oak). After the seeding, the lettuce was grown in an environmentally controlled greenhouse set at 28° C. during the daytime and at 18° C. during the nighttime. Three weeks after the seeding, each test solution shown in Table 5 was sprayed on the leaves at approximately 1 g/head. One week after the spraying, the appearance of the lettuce was visually observed, and the degree of coloration was evaluated. The evaluation was based on a comparison with T1 (the control). The same degree of coloration as T1 was rated CC, slightly more coloration than T1 was rated BB, and much more coloration than T1 was rated AA.

The subject of assay [3] is Lettuce (the cultivar: Souther). Briefly: Experiment 2: lettuce growth under high-temperature stress, total dry weight. It is filed as in vivo. To be noted: diluted 1000-fold, bottom watering, 40° C. for two hours. The procedure:
Lettuce (the cultivar: Souther) was raised in a plant incubator. Three weeks after the seeding and four weeks after the seeding, a fertilizer composition comprising 5 mass % GSSG, 10 mass % ALN, or 20 mass % ALN, a fertilizer composition comprising neither GSSG nor ALN, or a fertilizer composition comprising a combination of 5 mass % GSSG and each concentration of ALN was applied. Each fertilizer composition was diluted 1000-fold, and the resulting solution was applied by bottom watering.
Four weeks after the seeding, the seedling was transplanted into a pot, subjected to high-temperature stress at 40° C. for two hours in a plant incubator, and grown for one week. Then, the seedling was transferred into a glass greenhouse, grown for one week, and then, evaluated (repeated 9 times).
Assuming that the value of the total dry weight of the lettuce to which the fertilizer composition comprising neither GSSG nor ALN was applied alone was 100, the total dry weight of the lettuce to which each composition was applied was expressed.

In the case of `NC(=O)NC1NC(=O)NC1=O` (stereo not drawn) [ALN, 5-ureidohydantoin], the “total dry weight of the lettuce (water alone = 100)” value in assay [1] is recorded as 123. Besides, the “cumulative amount of anthocyanin” value in the assay with grape VR cell was “neither GSSG alone nor ALN alone affected”. In assay [2], the “degree of coloration, Lollo Rosso” value was “BB”. Moreover, the “degree of coloration, Red Oak” value in assay [2] was “BB”. In addition, the “total dry weight of the lettuce (fertilizer composition with neither GSSG nor ALN = 100)” value stood at 104 in assay [3] (ALN 10%, GSSG 0% or 5%) and 115 in assay [3] (ALN 20%, GSSG 0% or 5%).
In the case of `[Fe+2]` [Ferrous iron], the “total dry weight of the lettuce (water alone = 100)” value in assay [1] turned out to be 98.
Consider oxidized glutathione [GSSG], for which the “total dry weight of the lettuce (water alone = 100)” value in assay [1] stood at 113. Also, the “cumulative amount of anthocyanin” value in the assay with grape VR cell is “neither GSSG alone nor ALN alone affected”. Further, in assay [2], the “degree of coloration, Lollo Rosso” value is given as “CC” and the “degree of coloration, Red Oak” value was “BB”. Moreover, the “total dry weight of the lettuce (fertilizer composition with neither GSSG nor ALN = 100)” value in assay [3] (ALN 0%, GSSG 5 mass %) is listed as 108.
